Reference: PubChem BioAssay AID1963869 (Molecular Pharmacology Branch, DTP, NCI, 2024)

System: KRAS patient-derived spheroids with HUVEC/MSC, viability
Assay: Anticancer human tumor 323965-272-R-J2-PDC patient-derived pancreatic carcinoma cell line growth inhibition [KRAS2]
Settings: for IC50: curve of first compound; for viability, T/C: stronger effect = lower value
Outline: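 Combination screen of spheroid viability in tumor-cell co-cultures with endothelial (HUVEC) and mesenchymal stem cell stroma. Each agent was tested in half-log dilutions, topping at clinical Cmax or at 10 microM without a known Cmax.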

[1] = second compound 0.0316 µM, first compound 0.0316 µM
[2] = second compound 0.0316 µM, first compound 0.1 µM
[3] = second compound 0.1 µM, first compound 0.0316 µM
[4] = second compound 0.1 µM, first compound 0.1 µM
[5] = second compound 0.316 µM, first compound 0.0316 µM
[6] = second compound 0.316 µM, first compound 0.1 µM
[7] = second compound 1 µM, first compound 0.0316 µM
[8] = second compound 1 µM, first compound 0.1 µM
[9] = second compound 3.16 µM, first compound 0.0316 µM
[10] = second compound 3.16 µM, first compound 0.1 µM
[11] = second compound 0.0316 µM, first compound 0.316 µM
[12] = second compound 0.0316 µM, first compound 1 µM
[13] = second compound 0.0316 µM, first compound 3.16 µM
[14] = second compound 0.0316 µM, first compound 10 µM
[15] = second compound 0.1 µM, first compound 0.316 µM
[16] = second compound 0.1 µM, first compound 1 µM
[17] = second compound 0.1 µM, first compound 3.16 µM
[18] = second compound 0.1 µM, first compound 10 µM
[19] = second compound 0.316 µM, first compound 0.316 µM
[20] = second compound 0.316 µM, first compound 1 µM
[21] = second compound 0.316 µM, first compound 3.16 µM
[22] = second compound 0.316 µM, first compound 10 µM
[23] = second compound 1 µM, first compound 0.316 µM
[24] = second compound 1 µM, first compound 1 µM
[25] = second compound 1 µM, first compound 3.16 µM
[26] = second compound 1 µM, first compound 10 µM
[27] = second compound 3.16 µM, first compound 0.316 µM
[28] = second compound 3.16 µM, first compound 1 µM
[29] = second compound 3.16 µM, first compound 3.16 µM
[30] = second compound 3.16 µM, first compound 10 µM
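Also: spheroids exposed to agents for 7 days.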
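For viability, T/C in this document: 100% = DMSO vehicle control viability.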

| Compound | IC50 (second compound 0.0316 µM) | IC50 (second compound 0.1 µM) | IC50 (second compound 0.316 µM) | IC50 (second compound 1 µM) | IC50 (second compound 3.16 µM) | viability, T/C [1] | viability, T/C [2] | viability, T/C [3] | viability, T/C [4] | viability, T/C [5] | viability, T/C [6] | viability, T/C [7] | viability, T/C [8] | viability, T/C [9] | viability, T/C [10] | viability, T/C [11] | viability, T/C [12] | viability, T/C [13] | viability, T/C [14] | viability, T/C [15] | also measured |
| --- | --- | --- | --- | --- | --- | --- | --- | --- | --- | --- | --- | --- | --- | --- | --- | --- | --- | --- | --- | --- | --- |
| CC(C)n1nc(-c2ccc3oc(N)nc3c2)c2c(N)ncnc21 + C=CC(=O)N1CCN(c2nc(OCC3CCCN3C)nc3c2CCN(c2cccc4cccc(C)c24)C3)CC1CC#N | 0.000596 µM | 0.000419 µM | < 0.000316 µM | < 0.000316 µM | < 0.000316 µM | 17.2% | 14.5% | 16.5% | 13.5% | 14.8% | 12.1% | 13.9% | 11.1% | 5.8% | 4.1% |  |  |  |  |  | viability, T/C (second compound 0.0316 µM, first compound 0.000316 µM): 53%; viability, T/C (second compound 0.0316 µM, first compound 0.001 µM): 49.6%; viability, T/C (second compound 0.0316 µM, first compound 0.00316 µM): 30.5%; viability, T/C (second compound 0.0316 µM, first compound 0.01 µM): 26%; viability, T/C (second compound 0.1 µM, first compound 0.000316 µM): 52%; viability, T/C (second compound 0.1 µM, first compound 0.001 µM): 43.7%; viability, T/C (second compound 0.1 µM, first compound 0.00316 µM): 30.9%; viability, T/C (second compound 0.1 µM, first compound 0.01 µM): 21.1%; viability, T/C (second compound 0.316 µM, first compound 0.000316 µM): 45.9%; viability, T/C (second compound 0.316 µM, first compound 0.001 µM): 37.3%; viability, T/C (second compound 0.316 µM, first compound 0.00316 µM): 27.6%; viability, T/C (second compound 0.316 µM, first compound 0.01 µM): 18.7%; viability, T/C (second compound 1 µM, first compound 0.000316 µM): 49.9%; viability, T/C (second compound 1 µM, first compound 0.001 µM): 37.7%; viability, T/C (second compound 1 µM, first compound 0.00316 µM): 28.3%; viability, T/C (second compound 1 µM, first compound 0.01 µM): 17.6%; viability, T/C (second compound 3.16 µM, first compound 0.000316 µM): 28.4%; viability, T/C (second compound 3.16 µM, first compound 0.001 µM): 9.51%; viability, T/C (second compound 3.16 µM, first compound 0.00316 µM): 15.1%; viability, T/C (second compound 3.16 µM, first compound 0.01 µM): 2.78% |
| CC1(C)CCC(CN2CCN(c3ccc(C(=O)NS(=O)(=O)c4ccc(NCC5CCOCC5)c([N+](=O)[O-])c4)c(Oc4cnc5[nH]ccc5c4)c3)CC2)=C(c2ccc(Cl)cc2)C1 + C=CC(=O)N1CCN(c2nc(OCC3CCCN3C)nc3c2CCN(c2cccc4cccc(C)c24)C3)CC1CC#N | 1.38 µM | 1.36 µM | 1.12 µM | 1.03 µM | < 0.0316 µM | 65.2% | 69.2% | 68.2% | 67.1% | 59.6% | 61.6% | 62.1% | 61.9% | 7.81% | 6.48% | 67.2% | 66.6% | 6.91% | 1.68% | 60.1% | viability, T/C [16]: 67.6%; viability, T/C [17]: 7.16%; viability, T/C [18]: 1.62%; viability, T/C [19]: 61.6%; viability, T/C [20]: 54.9%; viability, T/C [21]: 3.92%; viability, T/C [22]: 2.34%; viability, T/C [23]: 55.6%; viability, T/C [24]: 51.2%; viability, T/C [25]: 2.41%; viability, T/C [26]: 0.74%; viability, T/C [27]: 3.08%; viability, T/C [28]: 0.59%; viability, T/C [29]: 0.43%; viability, T/C [30]: 0.18% |
| COc1cc(Nc2ncc3c(n2)-c2ccc(Cl)cc2C(c2c(F)cccc2OC)=NC3)ccc1C(=O)O + C=CC(=O)N1CCN(c2nc(OCC3CCCN3C)nc3c2CCN(c2cccc4cccc(C)c24)C3)CC1CC#N | < 0.0316 µM | 0.0494 µM | < 0.0316 µM | < 0.0316 µM | < 0.0316 µM | 60.1% | 43.8% | 58.1% | 35.9% | 48.5% | 33.3% | 55.3% | 32.6% | 21.1% | 13.2% | 31.4% | 36.3% | 46% | 56.2% | 29.7% | viability, T/C [16]: 30.7%; viability, T/C [17]: 39.4%; viability, T/C [18]: 48.8%; viability, T/C [19]: 26.6%; viability, T/C [20]: 27.8%; viability, T/C [21]: 35.8%; viability, T/C [22]: 43.5%; viability, T/C [23]: 20.4%; viability, T/C [24]: 30.5%; viability, T/C [25]: 38.6%; viability, T/C [26]: 46.6%; viability, T/C [27]: 10.3%; viability, T/C [28]: 19%; viability, T/C [29]: 20.5%; viability, T/C [30]: 15.5% |
| COc1cc2nccc(Oc3ccc(NC(=O)C4(C(=O)Nc5ccc(F)cc5)CC4)cc3)c2cc1OC + C=CC(=O)N1CCN(c2nc(OCC3CCCN3C)nc3c2CCN(c2cccc4cccc(C)c24)C3)CC1CC#N | > 10 µM | > 10 µM | > 10 µM | > 10 µM | < 0.0316 µM | 69% | 71.3% | 55.9% | 62.1% | 58.9% | 59.6% | 59.3% | 63.5% | 21.5% | 20.1% | 77.3% | 76.8% | 74.6% | 80.3% | 64.6% | viability, T/C [16]: 67.3%; viability, T/C [17]: 65.9%; viability, T/C [18]: 64.3%; viability, T/C [19]: 65.3%; viability, T/C [20]: 68.8%; viability, T/C [21]: 64.8%; viability, T/C [22]: 70.1%; viability, T/C [23]: 62.8%; viability, T/C [24]: 69.9%; viability, T/C [25]: 66.5%; viability, T/C [26]: 58.5%; viability, T/C [27]: 8.93%; viability, T/C [28]: 3.74%; viability, T/C [29]: 3.65%; viability, T/C [30]: 0.28% |
